Assay results from patent publication US10690672B2, “Methods for breast cancer treatment” (GEORGE MASON UNIVERSITY, priority 2015, dated 2020).

Assays:
breast cancer [1] = assay: Bayesian analysis (MCMC simulation on I-SPY 2 data): probability of superiority to control and of Phase III success; type: in vivo, human
Text: Bayesian analysis was completed using the MCMC simulation based on I-SPY 2 data with the following model: pCR˜HR+HER2+biomarker+treatment+treatment*HR+treatment*HER2+treatment*biomarker. No multiple comparison adjustments were applied. The Bayesian analytical engine developed by Don Berry (Yee et al J Clin Oncol. 2012 Dec. 20; 30(36):4584-6), is a mathematical approach that evaluates the clinical performance of a drug (in this case, neratinib) in both the treatment arm (in this case tumor shrinkage estimates by size changes observed by MRI), coupled with complete pathological response (pCR) as measured as the final response determinant, and the response of the predicate therapy in the control arm. This evaluation determined success of a given therapy for a Phase III trial, and in this case, it was determined that phosphorylation of EGFR at Y1173 was not only statistically significant at predicting or assessing response to neratinib in all patients regardless of hormone receptor levels and HER2 levels (HER2+, HER2− and HR+ and HR−), but when patients with high levels of phosphorylated EGFR (Y1173) were added to the HR−/HER2+ subgroup, the prevalence of ‘biomarker-positive’ patients increased by 50%, while increasing the predicted probability of Phase III success to 90%. Moreover, when EGFR Y1173 was used as a single marker, a statistically significant increase in Phase III success was determined for all patients compared to HER2+/HR− status as measured by immunohistochemical methods. (93% vs 87%).

breast cancer [2] = assay: I-SPY 2 TRIAL: pathological complete response (pCR) to neratinib plus standard chemotherapy vs concurrent control
Method: Subjects providing samples (pre-treatment biopsies) for studies described herein were characterized based on measurement of estrogen/hormone receptor (HR) and HER2 (c-erbB2), and were described by HER2−/HR−. HER2+/HR+. HER2+/HR−, HER2−/HR+ phenotypes. Response to treatment was determined by the amount of tumor shrinkage and a lack of appreciable tumor evident at surgery. A response of tumor shrinkage and/or lack of tumor when examined (such as at surgery) is referred to herein as “complete pathological response” (pCR), and has recently been deemed by the US FDA as an appropriate clinical endpoint for therapeutic approval. Neratinib is a therapeutic agent with a mechanism of action that is as a tyrosine kinase inhibitor that binds to and inhibits c-erbB2 and EGFR protein activity and the respective linked downstream pathways. […] Methods described herein may comprise obtaining measurements of the amounts proteins from a subject sample using a protein array technology developed by the inventors, and is referred to herein as “reverse phase protein microarray” (RPPA). This microarray allows for quantitative measurement of the amount of proteins and/or phosphorylated proteins in the tumor or cancerous cells from pretreatment sample, for example from biopsy specimens of women with Stage II/III breast cancer.
This example tested the hypothesis that the response to the pan-ERBB inhibitor, neratinib, was predicted by pre-treatment HER2-EGFR signaling. […] All patients received at least standard chemotherapy (which was comprised of 12 weekly cycles of paclitaxel (a taxane) therapy followed by 4 cycles of doxorubicin/cyclophosphamide (AC) therapy). For HER2+ patients, neratinib was administered in place of trastuzumab, and all HER2+ control arm patients received chemotherapy plus trastuzumab. 18 HER family signaling proteins were evaluated as biomarkers of neratinib response using reverse phase protein microarray (RPMA) data from pre-treatment laser capture microdissection (LCM) purified tumor epithelium.
Eighteen (18) protein/phosphoproteins biomarkers relating to HER family signaling were evaluated: AKT S473, AKT T308, EGFR, EGFR Y1068, EGFR Y1148, EGFR Y1173, EGFR Y992, ERBB2, ERBB2 Y1248, ERBB3 total, ERBB3 Y1289, ERK1/2 T202/Y204, Heregulin, mTOR, mTOR S2448, PI3K p85 Y458/p55 Y199, PTEN S380, and SHC Y317. This study assessed association between biomarker and response in the neratinib and control arms alone (likelihood ratio test), and relative performance between arms (biomarker×treatment interaction) using a logistic model. Analysis was also performed adjusting for HR/HER2 status.

CCOc1cc2ncc(C#N)c(Nc3ccc(OCc4ccccn4)c(Cl)c3)c2cc1NC(=O)/C=C/CN(C)C [Neratinib]
Prob > CTRL (probability of Neratinib superiority to control) (breast cancer [1]; EGFR Y1173 High): 0.99
Prob Ph III Success (breast cancer [1]; EGFR Y1173 High): 0.93
probability of Phase III success (breast cancer [1]; EGFR Y1173 used as a single marker, all patients): 93%
probability of Phase III success (breast cancer [1]; HER2+/HR− status by immunohistochemical methods): 87%
Prob > CTRL (probability of Neratinib superiority to control) (breast cancer [1]; HR−/HER2+): 0.97
Prob Ph III Success (breast cancer [1]; HR−/HER2+): 0.87
Prob > CTRL (probability of Neratinib superiority to control) (breast cancer [1]; HR−/HER2+ AND EGFR Y1173 High): 0.99
Prob Ph III Success (breast cancer [1]; HR−/HER2+ AND EGFR Y1173 High): 0.95
Prob > CTRL (probability of Neratinib superiority to control) (breast cancer [1]; HR−/HER2+ OR EGFR Y1173 High): 0.99
Prob Ph III Success (breast cancer [1]; HR−/HER2+ OR EGFR Y1173 High): 0.9
predicted probability of Phase III success (breast cancer [1]; patients with high phosphorylated EGFR (Y1173) added to the HR−/HER2+ subgroup): 90%
OR associated with treatment (pCR) (breast cancer [2]; EGFR Y1173 High patients added to the graduating HR−/HER2+ subset): 3.2
odds ratio (OR) of pCR between EGFR Y1173 groups in the N relative to control arm (breast cancer [2]; EGFR Y1173 High vs Low, neratinib arm relative to control arm): 10.1
clinical response (breast cancer [2]; HER2+/HR− subtype): statistically significant clinical response
pCR rate (breast cancer [2]; HR−/HER2+ patients, EGFR Y1173 High, neratinib arm): 12/18 (67%)
pCR rate (breast cancer [2]; HR−/HER2+ patients, EGFR Y1173 Low, neratinib arm (neratinib in place of trastuzumab + paclitaxel then AC)): 0/4 (0%)
OR associated with treatment (pCR) (breast cancer [2]; HR−/HER2+ signature): 2.1
trial outcome (graduation) (breast cancer [2]; I-SPY 2 TRIAL, HR−/HER2+ signature): graduated
pCR rate (breast cancer [2]; Not HR−/HER2+ patients, EGFR Y1173 High, neratinib arm): 24/57 (42%)
pCR rate (breast cancer [2]; Not HR−/HER2+ patients, EGFR Y1173 Low, neratinib arm): 3/27 (11%)
pCR by subtype (breast cancer [2]; regardless of HER2/HR status): pCR was observed in every subtype
